Laboratory results as given in patent US11667602B2, “Compounds and their use” (AstraZeneca AB, priority 2020, dated 2023).
In brackets after ≈: the same amount, converted by molar mass.

Tests used:
[1] = Human Plasma Protein Binding (Test B); type: in vitro ADME; settings: fraction unbound (fu)
Summary of the method: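 Values given as % free (fu) in human plasma, using the method of Wernevik et al. (2020). For compounds tested more than once, the arithmetic mean is given.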

[2] = Human Liver Microsomal Stability (Test C); type: in vitro ADME; settings: for microsomal CLint: human, liver microsomes
Summary of the method: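 CLint (μl/min/mg protein) derived from compound depletion in human liver microsomes following a published standardized early-DMPK protocol; replicate determinations given as arithmetic mean.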

[3] = Human Hepatocyte Stability (Test D); type: in vitro ADME; settings: geometric mean if run multiple times; for hepatocyte CLint at 1 µM: human, cryopreserved pooled human hepatocytes (LiverPool 10-Donor)
Summary of the method: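 Intrinsic clearance (μL/min/10^6 cells), derived as kV/N from the log-linear loss of parent compound. Compound incubated at 37 °C with cryopreserved pooled human hepatocytes, 0.25×10^6 cells in 0.25 mL L-15; dosing solution 100 μM in acetonitrile. Singlicate incubations, cassette LC-MS; repeats reported as geometric mean.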

[4] = Rat Hepatocyte Stability (Test E); type: in vitro ADME; settings: geometric mean if run multiple times; for hepatocyte CLint: rat, hepatocytes
Summary of the method: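 Intrinsic clearance in rat hepatocytes, expressed as μl/min/10^6 cells, following the literature integrated DMPK panel method. Repeat determinations combined as geometric mean.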

Solubility (Test F) = type: physicochemical; settings: arithmetic mean if run multiple times
Method: The assay was conducted according to the Solubility Assay described in pages 164-167 of Wernevik, J. et al., “A Fully Integrated Assay Panel for Early Drug Metabolism and Pharmacokinetics Profiling”, Assay and Drug Development Technologies, 2020, 18(4), 157-179. Data are reported in Table 36 as solubility ([…]. Where the assay was run multiple times for the same compound, the arithmetic mean is reported.

human RXFP1 = target: T1, human RXFP1 (Homo sapiens, UniProt Q9HBX9); assay: RXFP1 Hu cAMP (Test A); type: cell-based; design: expressed in transfected cells; host or cells: Jump-In T-REx CHO-K1 cells (ThermoFisher), induced with 10 ng/ml doxycycline for 24 h; settings: RXFP1 Hu cAMP; for EC50: read-out: Test A EC50
T1 sequence (Q9HBX9 1-757): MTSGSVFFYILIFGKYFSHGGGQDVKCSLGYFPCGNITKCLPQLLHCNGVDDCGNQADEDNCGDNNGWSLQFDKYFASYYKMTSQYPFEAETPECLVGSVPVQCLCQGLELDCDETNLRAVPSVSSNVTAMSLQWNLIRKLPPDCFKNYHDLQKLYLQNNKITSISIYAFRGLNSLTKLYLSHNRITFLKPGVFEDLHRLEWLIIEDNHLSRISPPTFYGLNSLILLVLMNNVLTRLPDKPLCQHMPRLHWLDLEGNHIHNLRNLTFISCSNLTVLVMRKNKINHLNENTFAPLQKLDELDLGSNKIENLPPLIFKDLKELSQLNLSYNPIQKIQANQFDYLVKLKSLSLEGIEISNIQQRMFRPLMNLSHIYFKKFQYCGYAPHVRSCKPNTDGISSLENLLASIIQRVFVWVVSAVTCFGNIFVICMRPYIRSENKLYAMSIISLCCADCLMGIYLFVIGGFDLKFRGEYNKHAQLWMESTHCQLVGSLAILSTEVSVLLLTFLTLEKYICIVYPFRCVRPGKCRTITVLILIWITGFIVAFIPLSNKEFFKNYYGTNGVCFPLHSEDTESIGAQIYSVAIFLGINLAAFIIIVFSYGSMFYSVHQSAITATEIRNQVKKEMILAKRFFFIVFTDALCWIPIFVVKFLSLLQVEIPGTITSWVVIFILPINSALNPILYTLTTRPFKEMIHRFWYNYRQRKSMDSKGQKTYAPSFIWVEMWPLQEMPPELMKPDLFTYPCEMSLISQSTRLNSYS
Summary of the method: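 CHO-K1 (Jump-In T-REx), RXFP1 induced w/ 10 ng/ml doxycycline 24 h, cryopreserved. 0.5 mM IBMX final. cAMP by HTRF, 2 h RT, std curve.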

| SMILES | Test B Human Plasma Protein Binding (% free) [1] | microsomal CLint [2] | hepatocyte CLint at 1 µM [3] | hepatocyte CLint [4] | solubility (Solubility (Test F)) | Test A Sinf (human RXFP1) | EC50 (human RXFP1) | Test C Human Liver Microsomal Stability Clint ([2]; human liver microsomes) | Test D Human Hepatocyte Stability Clint ([3]; human hepatocytes) | Test E Rat Hepatocyte Stability Clint ([4]; rat hepatocytes) |
| --- | --- | --- | --- | --- | --- | --- | --- | --- | --- | --- |
| COc1cc(C#N)c(O[C@H]2CC[C@@](C)(C(=O)O)CC2)cc1C(=O)N[C@H]1C2CCC(CC2)[C@H]1C(=O)NCC1(C)CCC1 (relative stereo) [Example 539, (1R,4s)-4-(2-Cyano-4-methoxy-5-(((2S*,3R*)-3-(((1-methylcyclobutyl)methyl)carbamoyl)bicyclo[2.2.2]octan-2-yl)carbamoyl)phenoxy)-1-methylcyclohexane-1-carboxylic acid] | 3.2 % free | – | – | – | 700 µM (≈ 396 µg/mL) | 102% | 0.0031 µM | 63 µL/min/mg | 64 μL/min/10^6 cells | 28 μL/min/10^6 cells |
| COc1cc(C#N)c(O[C@H]2CC[C@@](C)(C(=O)O)CC2)cc1C(=O)N[C@@H]1[C@H]2CC[C@H](C2)[C@@H]1C(=O)NC(C)(C)C [Example 99] | 20 % free | 6.2 µL/min/mg | < 1 µL/min/1e6 cells | 11 µL/min/1e6 cells | 920 µM (≈ 484 µg/mL) | 113% | 0.14 µM | – | – | – |
| COc1cc(-c2cc(C(=O)N[C@H]3[C@@H](C(=O)Nc4cccc(S(=O)(=O)C(F)(F)F)c4)[C@@H]4C=C[C@H]3C4)c(OC)cc2F)ccc1C(=O)O (racemic) [Example 226, rac-2′-Fluoro-3,4′-dimethoxy-5′-(((1R,2R,3S,4S)-3-((3-((trifluoromethyl)sulfonyl)phenyl)carbamoyl)bicyclo[2.2.1]hept-5-en-2-yl)carbamoyl)-[1,1′-biphenyl]-4-carboxylic acid] | 0.62 % free | 12 µL/min/mg | 11 µL/min/1e6 cells | 16 µL/min/1e6 cells | 870 µM (≈ 576 µg/mL) | 105% | 0.3 µM | – | – | – |
| COc1cc(F)c(O[C@H]2CC[C@@](C)(C(=O)O)CC2)cc1C(=O)Nc1cnccc1C(=O)NCC1(C)CCC1 [Example 150, (1s,4s)-4-(2-Fluoro-4-methoxy-5-((4-(((1-methylcyclobutyl)methyl)carbamoyl)pyridin-3-yl)carbamoyl)phenoxy)-1-methylcyclohexane-1-carboxylic acid] | 1.8 % free | < 3 µL/min/mg | 4.9 µL/min/1e6 cells | 39 µL/min/1e6 cells | 16 µM (≈ 8.44 µg/mL) | 95% | 0.46 µM | – | – | – |
| COc1cc(F)c(O[C@H]2CC[C@@](C)(C(=O)O)CC2)cc1C(=O)N[C@@H]1[C@H]2CC[C@H](C2)[C@@H]1C(=O)NCC1(F)CCOCC1 [Example 146, (1S,4s)-4-(2-Fluoro-5-(((1S,2R,3S,4R)-3-(((4-fluorotetrahydro-2H-pyran-4-yl)methyl)carbamoyl)bicyclo[2.2.1]heptan-2-yl)carbamoyl)-4-methoxyphenoxy)-1-methylcyclohexane-1-carboxylic acid] | 24 % free | < 3 µL/min/mg | < 1 µL/min/1e6 cells | 14 µL/min/1e6 cells | 1000 µM (≈ 579 µg/mL) | 87% | > 1.9 µM | – | – | – |

Further lines, with some results ahead:

| Test B Human Plasma Protein Binding (% free) [1] | microsomal CLint [2] | hepatocyte CLint at 1 µM [3] | hepatocyte CLint [4] | solubility (Solubility (Test F)) | Test A Sinf (human RXFP1) | EC50 (human RXFP1) | SMILES | Test C Human Liver Microsomal Stability Clint ([2]; human liver microsomes) | Test D Human Hepatocyte Stability Clint ([3]; human hepatocytes) | Test E Rat Hepatocyte Stability Clint ([4]; rat hepatocytes) |
| --- | --- | --- | --- | --- | --- | --- | --- | --- | --- | --- |
| 1.8 % free | 36 µL/min/mg | 18 µL/min/1e6 cells | 19 µL/min/1e6 cells | 1000 µM (≈ 585 µg/mL) | 106% | 0.16 µM | COc1cc(F)c(O[C@H]2CC[C@@H](C(=O)O)CC2)cc1C(=O)N[C@@H]1CCC[C@@H]1C(=O)Nc1ccc(F)c(C(F)(F)F)c1 [Example 492] | – | – | – |
| 2.2 % free | 58 µL/min/mg | 26 µL/min/1e6 cells | 110 µL/min/1e6 cells | 900 µM (≈ 603 µg/mL) | 96% | 0.099 µM | COc1cc(F)c(-c2ncc(CCC(=O)O)s2)cc1C(=O)N[C@@H]1[C@H]2CC[C@H](C2)[C@@H]1C(=O)Nc1cccc(S(=O)(=O)C(F)(F)F)c1 [Example 243] | – | – | – |
| <0.30 % free | 21 µL/min/mg | 13 µL/min/1e6 cells | 18 µL/min/1e6 cells | 560 µM (≈ 354 µg/mL) | – | > 50 µM | COc1cc(F)c(-c2cccc(C(=O)O)c2)cc1C(=O)N[C@@H]1[C@H](C(=O)Nc2cccc(S(=O)(=O)C(F)(F)F)c2)[C@H]2C=C[C@@H]1C2 (single isomer, unassigned) [Example 555] | – | – | – |
| 2.1 % free | 32 µL/min/mg | 8 µL/min/1e6 cells | 19 µL/min/1e6 cells | 430 µM (≈ 285 µg/mL) | 114% | 0.037 µM | COc1cc(F)c(O[C@H]2CC[C@@](C)(C(=O)O)CC2)cc1C(=O)N[C@@H]1CCC[C@]1(F)C(=O)Nc1cccc(S(=O)(=O)C(F)(F)F)c1 [Example 355] | – | – | – |
| 0.87 % free | 32 µL/min/mg | 6.5 µL/min/1e6 cells | 20 µL/min/1e6 cells | 670 µM (≈ 368 µg/mL) | 106% | 0.024 µM | CC1(CNC(=O)[C@H]2[C@@H]3CC[C@@H](C3)[C@H]2NC(=O)c2cc(O[C@H]3CC[C@@](C)(C(=O)O)CC3)c(Cl)cc2F)CCC1 [Example 408] | – | – | – |
| <0.31 % free | < 3 µL/min/mg | 7.7 µL/min/1e6 cells | 13 µL/min/1e6 cells | 17 µM (≈ 11.1 µg/mL) | 112% | 0.48 µM | COc1cc(F)c(-c2ccc(F)c(C(=O)O)c2)cc1C(=O)N[C@H]1[C@@H](C(=O)Nc2cccc(S(=O)(=O)C(F)(F)F)c2)[C@@H]2C=C[C@H]1C2 (racemic) [Example 231] | – | – | – |
| <0.070 % free | 12 µL/min/mg | 5.7 µL/min/1e6 cells | 7.5 µL/min/1e6 cells | 460 µM (≈ 314 µg/mL) | 108% | 0.00049 µM | COc1cc(F)c(O[C@H]2CC[C@@](C)(C(=O)O)CC2)cc1C(=O)NC1C2CCC(C2)C1C(=O)Nc1ccc(F)c(S(F)(F)(F)(F)F)c1 (single isomer, unassigned) [Example 520, (1R,4s)-4-(2-Fluoro-5-(((1S*,2S*,3R*,4R*)-3-((4-fluoro-3-(pentafluoro-λ6-sulfaneyl)phenyl)carbamoyl)bicyclo[2.2.1]heptan-2-yl)carbamoyl)-4-methoxyphenoxy)-1-methylcyclohexane-1-carboxylic acid] | – | – | – |
